Results as given in ChEMBL document CHEMBL3045137, “Synthesis and evaluation of the hypoglycemic and hypolipidemic activity of novel 5-benzylidene-2,4-thiazolidinedione analogs in a type-2 diabetes model” (2011).

Legend:
Assay type in all cases: functional
Set-up in all cases: scale not given: the % may be the effect or the level left
Rattus norvegicus [1] = experiment: Hypolipidemic activity in high fat diet fed Rattus norvegicus Sprague-Dawley (rat) type-2 diabetes model assessed as reduction in streptozotocin-induced cholesterol level at 20 mg/kg/day, po for 14 days measured after treatment
Rattus norvegicus [2] = experiment: Hypoglycemic activity in high fat diet fed Rattus norvegicus Sprague-Dawley (rat) type-2 diabetes model assessed as reduction in streptozotocin-induced blood glucose level at 20 mg/kg/day, po for 14 days measured after treatment
Rattus norvegicus [3] = experiment: Hypolipidemic activity in high fat diet fed Rattus norvegicus Sprague-Dawley (rat) type-2 diabetes model assessed as reduction in streptozotocin-induced triglyceride level at 20 mg/kg/day, po for 14 days measured after treatment
Rattus norvegicus [4] = experiment: Hypolipidemic activity in high fat diet fed Rattus norvegicus Sprague-Dawley (rat) type-2 diabetes model assessed as reduction in streptozotocin-induced cholesterol level at 10 mg/kg/day, po for 14 days measured after treatment
Rattus norvegicus [5] = experiment: Hypoglycemic activity in high fat diet fed Rattus norvegicus Sprague-Dawley (rat) type-2 diabetes model assessed as reduction in streptozotocin-induced blood glucose level at 10 mg/kg/day, po for 14 days measured after treatment
Rattus norvegicus [6] = experiment: Hypolipidemic activity in high fat diet fed Rattus norvegicus Sprague-Dawley (rat) type-2 diabetes model assessed as reduction in streptozotocin-induced triglyceride level at 10 mg/kg/day, po for 14 days measured after treatment

Structure (SMILES)	Activity (Rattus norvegicus [1]) [%]	Activity (Rattus norvegicus [2]) [%]	Activity (Rattus norvegicus [3]) [%]	Activity (Rattus norvegicus [4]) [%]	Activity (Rattus norvegicus [5]) [%]	Activity (Rattus norvegicus [6]) [%]
O=C(COc1ccc(/C=C2\SC(=O)NC2=O)cc1)Nc1ncc([N+](=O)[O-])s1	92.46	56.08	78.11			
NC(=O)c1cc(C(=O)COc2ccc(/C=C3\SC(=O)NC3=O)cc2)ccc1O	89.7	64.43	74.18			
CCc1ccc(CCOc2ccc(CC3SC(=O)NC3=O)cc2)nc1.Cl (centres undefined) [PIOGLITAZONE HYDROCHLORIDE]				86.83	51.57	78.38
